Reference: ChEMBL document CHEMBL5291721, “A preclinical secondary pharmacology resource illuminates target-adverse drug reaction associations of marketed drugs” (Nat Commun, 2023)
Values belong to the compound of their own block, whether it stands above or below them. Where a SMILES comes first, the peptide text is derived from it. [ ]: non-standard residue; d: D form. pGlu = O=C1CC[C@@H](C(=O)O)N1; Thz = O=C(O)[C@@H]1CSCN1

Legend:
Adenosine receptor A2a = Adenosine receptor A2a (Homo sapiens, UniProt P29274)
[1] = target: Beta-1 adrenergic receptor (Homo sapiens, UniProt P08588); format: functional
[2] = target: T1, Alpha-1A adrenergic receptor (Homo sapiens, UniProt P35348); format: functional, cell-based
T1 sequence (P35348 whole entry): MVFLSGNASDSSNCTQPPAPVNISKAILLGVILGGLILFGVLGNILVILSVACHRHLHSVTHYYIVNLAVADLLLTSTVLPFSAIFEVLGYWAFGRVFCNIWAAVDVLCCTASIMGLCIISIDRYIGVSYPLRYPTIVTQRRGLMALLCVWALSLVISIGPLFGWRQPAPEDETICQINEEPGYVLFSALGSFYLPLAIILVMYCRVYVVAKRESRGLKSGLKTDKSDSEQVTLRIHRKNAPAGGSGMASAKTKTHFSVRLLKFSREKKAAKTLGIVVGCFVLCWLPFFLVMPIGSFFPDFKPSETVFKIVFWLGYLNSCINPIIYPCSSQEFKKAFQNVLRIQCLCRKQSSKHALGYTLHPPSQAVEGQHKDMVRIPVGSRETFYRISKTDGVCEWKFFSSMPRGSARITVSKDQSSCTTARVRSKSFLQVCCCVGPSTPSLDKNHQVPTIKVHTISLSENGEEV

[3] = target: T2, Alpha-2C adrenergic receptor (Homo sapiens, UniProt P18825); format: functional
T2 sequence (P18825 whole entry): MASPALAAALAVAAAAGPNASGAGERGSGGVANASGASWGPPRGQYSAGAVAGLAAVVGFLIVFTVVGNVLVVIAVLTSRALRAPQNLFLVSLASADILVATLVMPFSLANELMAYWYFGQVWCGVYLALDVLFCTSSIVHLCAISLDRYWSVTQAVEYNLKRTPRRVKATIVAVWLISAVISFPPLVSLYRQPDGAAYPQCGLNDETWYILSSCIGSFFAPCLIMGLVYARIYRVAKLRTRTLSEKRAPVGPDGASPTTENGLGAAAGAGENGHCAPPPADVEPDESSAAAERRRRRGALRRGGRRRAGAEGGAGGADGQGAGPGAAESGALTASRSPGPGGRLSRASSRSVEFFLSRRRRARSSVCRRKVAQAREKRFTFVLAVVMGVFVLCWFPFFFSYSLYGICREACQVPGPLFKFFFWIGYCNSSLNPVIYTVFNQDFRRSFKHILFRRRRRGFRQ

[4] = target: Neuronal acetylcholine receptor subunit alpha-4 (Homo sapiens, UniProt P43681)
Endothelin-1 receptor = target: T3, Endothelin-1 receptor (Homo sapiens, UniProt P25101)
T3 sequence (P25101 whole entry): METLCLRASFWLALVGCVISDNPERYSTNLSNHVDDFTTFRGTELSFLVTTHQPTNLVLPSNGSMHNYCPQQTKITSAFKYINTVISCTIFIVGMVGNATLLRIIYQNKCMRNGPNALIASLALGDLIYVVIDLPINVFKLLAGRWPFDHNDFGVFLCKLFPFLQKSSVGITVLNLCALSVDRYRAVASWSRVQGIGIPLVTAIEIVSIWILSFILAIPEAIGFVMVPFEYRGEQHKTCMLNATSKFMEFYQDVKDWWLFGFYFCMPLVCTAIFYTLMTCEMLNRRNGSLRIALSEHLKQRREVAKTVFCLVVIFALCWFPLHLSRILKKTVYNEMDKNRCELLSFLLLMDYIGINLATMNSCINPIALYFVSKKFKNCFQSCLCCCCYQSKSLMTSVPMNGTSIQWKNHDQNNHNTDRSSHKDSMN

[5] = target: Gamma-aminobutyric acid receptor subunit alpha-1 (Rattus norvegicus, UniProt P62813); format: functional
D(1A) dopamine receptor = D(1A) dopamine receptor (Homo sapiens, UniProt P21728); format: functional, cell-based
[6] = target: 5-hydroxytryptamine receptor 2B (Homo sapiens, UniProt P41595); format: functional, cell-based
[7] = target: T4, 5-hydroxytryptamine receptor 2A (Homo sapiens, UniProt P28223); format: functional, cell-based
[8] = target: Muscarinic acetylcholine receptor M3 (Homo sapiens, UniProt P20309)
[9] = target: T5, Alpha-2A adrenergic receptor (Homo sapiens, UniProt P08913); format: functional, cell-based
T5 sequence (P08913 whole entry): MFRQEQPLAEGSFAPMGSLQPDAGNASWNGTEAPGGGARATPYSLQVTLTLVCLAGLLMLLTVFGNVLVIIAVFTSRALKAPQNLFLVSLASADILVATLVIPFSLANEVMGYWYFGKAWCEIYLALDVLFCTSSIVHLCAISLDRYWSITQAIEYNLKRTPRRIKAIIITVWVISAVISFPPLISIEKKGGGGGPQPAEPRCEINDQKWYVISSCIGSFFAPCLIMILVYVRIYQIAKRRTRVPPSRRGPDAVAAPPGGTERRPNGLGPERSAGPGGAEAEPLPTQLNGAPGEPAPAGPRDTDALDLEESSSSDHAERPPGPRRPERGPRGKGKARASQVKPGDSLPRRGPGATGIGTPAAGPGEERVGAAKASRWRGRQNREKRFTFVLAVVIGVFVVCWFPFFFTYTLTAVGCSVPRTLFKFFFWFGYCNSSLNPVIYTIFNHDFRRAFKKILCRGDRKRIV

[10] = target: T5, Alpha-2A adrenergic receptor; format: functional, cell-based; remark: listed apart in the source
B2 bradykinin receptor = target: T6, B2 bradykinin receptor (Homo sapiens, UniProt P30411)
T6 sequence (P30411 whole entry): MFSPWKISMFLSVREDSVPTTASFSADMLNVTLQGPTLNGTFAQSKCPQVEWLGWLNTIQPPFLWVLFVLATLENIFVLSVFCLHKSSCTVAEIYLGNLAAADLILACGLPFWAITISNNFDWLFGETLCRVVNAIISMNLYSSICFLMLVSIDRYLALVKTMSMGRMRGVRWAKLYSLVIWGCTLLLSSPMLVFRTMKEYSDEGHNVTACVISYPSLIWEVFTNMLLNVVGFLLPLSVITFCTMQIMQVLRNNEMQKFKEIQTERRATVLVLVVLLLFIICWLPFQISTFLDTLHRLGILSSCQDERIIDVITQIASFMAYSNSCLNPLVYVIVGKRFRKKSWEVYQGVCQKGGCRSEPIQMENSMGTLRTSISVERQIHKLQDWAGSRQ

[11] = target: T4, 5-hydroxytryptamine receptor 2A; format: functional, cell-based; remark: listed apart in the source
Note: assay procedure not described here.

Sequence of Beta-1 adrenergic receptor (P08588 whole entry): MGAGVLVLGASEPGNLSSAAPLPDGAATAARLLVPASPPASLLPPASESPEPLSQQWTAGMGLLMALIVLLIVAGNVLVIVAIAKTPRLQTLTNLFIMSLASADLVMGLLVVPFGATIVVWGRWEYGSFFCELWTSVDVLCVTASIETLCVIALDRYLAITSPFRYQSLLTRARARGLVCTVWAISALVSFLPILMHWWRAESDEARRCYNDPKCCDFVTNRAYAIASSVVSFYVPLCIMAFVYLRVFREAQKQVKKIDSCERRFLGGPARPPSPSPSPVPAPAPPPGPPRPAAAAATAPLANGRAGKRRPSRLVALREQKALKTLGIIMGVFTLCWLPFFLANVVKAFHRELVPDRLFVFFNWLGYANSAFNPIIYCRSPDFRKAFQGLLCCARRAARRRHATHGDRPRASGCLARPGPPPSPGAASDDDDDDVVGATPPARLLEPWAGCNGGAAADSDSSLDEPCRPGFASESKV
Sequence of D(1A) dopamine receptor (P21728 whole entry): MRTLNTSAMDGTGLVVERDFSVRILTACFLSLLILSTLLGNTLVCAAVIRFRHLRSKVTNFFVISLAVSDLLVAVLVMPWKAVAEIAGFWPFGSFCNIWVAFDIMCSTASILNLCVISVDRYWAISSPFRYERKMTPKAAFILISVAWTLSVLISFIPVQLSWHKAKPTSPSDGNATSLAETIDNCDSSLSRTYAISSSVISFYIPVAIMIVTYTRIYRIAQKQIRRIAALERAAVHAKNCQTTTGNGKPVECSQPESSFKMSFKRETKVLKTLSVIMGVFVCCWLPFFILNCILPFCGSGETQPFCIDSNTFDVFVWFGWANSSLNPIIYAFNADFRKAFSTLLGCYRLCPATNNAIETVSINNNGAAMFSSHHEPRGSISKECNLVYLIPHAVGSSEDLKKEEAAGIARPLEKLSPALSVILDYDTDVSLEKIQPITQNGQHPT
T4 sequence (P28223 whole entry): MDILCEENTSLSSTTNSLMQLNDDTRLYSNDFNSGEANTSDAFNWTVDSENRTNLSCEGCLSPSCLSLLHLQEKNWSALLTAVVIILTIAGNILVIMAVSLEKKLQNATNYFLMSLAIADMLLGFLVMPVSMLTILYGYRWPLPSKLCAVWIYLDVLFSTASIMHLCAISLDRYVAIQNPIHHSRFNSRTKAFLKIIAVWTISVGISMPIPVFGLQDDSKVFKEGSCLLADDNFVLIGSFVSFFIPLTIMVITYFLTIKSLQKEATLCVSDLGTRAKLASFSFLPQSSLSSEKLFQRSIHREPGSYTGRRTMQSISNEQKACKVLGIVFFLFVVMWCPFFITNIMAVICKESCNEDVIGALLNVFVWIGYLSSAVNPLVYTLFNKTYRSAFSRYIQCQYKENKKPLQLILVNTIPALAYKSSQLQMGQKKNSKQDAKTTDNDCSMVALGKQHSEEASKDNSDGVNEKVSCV
Sequence of Adenosine receptor A2a (P29274 whole entry): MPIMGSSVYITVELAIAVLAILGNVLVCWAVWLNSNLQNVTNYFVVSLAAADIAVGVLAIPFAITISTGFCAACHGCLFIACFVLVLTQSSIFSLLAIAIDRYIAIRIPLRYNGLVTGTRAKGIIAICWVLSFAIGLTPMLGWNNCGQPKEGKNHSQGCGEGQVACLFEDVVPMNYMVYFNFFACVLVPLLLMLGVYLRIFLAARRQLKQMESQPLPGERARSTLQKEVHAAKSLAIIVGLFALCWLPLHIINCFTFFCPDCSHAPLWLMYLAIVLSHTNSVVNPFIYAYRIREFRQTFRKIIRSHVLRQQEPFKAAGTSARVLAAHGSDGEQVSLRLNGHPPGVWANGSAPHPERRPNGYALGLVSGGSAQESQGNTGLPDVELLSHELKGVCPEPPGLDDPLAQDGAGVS
Sequence of Neuronal acetylcholine receptor subunit alpha-4 (P43681 whole entry): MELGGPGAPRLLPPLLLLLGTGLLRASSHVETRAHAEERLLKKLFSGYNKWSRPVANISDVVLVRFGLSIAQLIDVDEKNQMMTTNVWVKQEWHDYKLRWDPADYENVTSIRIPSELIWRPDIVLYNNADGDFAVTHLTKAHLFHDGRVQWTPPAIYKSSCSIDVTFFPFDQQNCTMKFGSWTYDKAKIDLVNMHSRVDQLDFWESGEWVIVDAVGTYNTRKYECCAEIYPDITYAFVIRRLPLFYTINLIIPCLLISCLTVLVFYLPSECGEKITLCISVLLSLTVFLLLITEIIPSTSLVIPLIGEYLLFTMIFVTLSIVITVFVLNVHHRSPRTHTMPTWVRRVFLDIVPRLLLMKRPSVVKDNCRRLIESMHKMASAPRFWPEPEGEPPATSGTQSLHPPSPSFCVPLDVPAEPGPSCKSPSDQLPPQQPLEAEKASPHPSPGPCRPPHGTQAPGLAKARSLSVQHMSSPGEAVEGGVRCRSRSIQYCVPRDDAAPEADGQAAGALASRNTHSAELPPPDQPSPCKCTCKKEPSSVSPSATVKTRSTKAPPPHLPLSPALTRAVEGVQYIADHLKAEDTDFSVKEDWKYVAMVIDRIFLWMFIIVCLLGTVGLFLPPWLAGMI
Sequence of Gamma-aminobutyric acid receptor subunit alpha-1 (P62813 whole entry): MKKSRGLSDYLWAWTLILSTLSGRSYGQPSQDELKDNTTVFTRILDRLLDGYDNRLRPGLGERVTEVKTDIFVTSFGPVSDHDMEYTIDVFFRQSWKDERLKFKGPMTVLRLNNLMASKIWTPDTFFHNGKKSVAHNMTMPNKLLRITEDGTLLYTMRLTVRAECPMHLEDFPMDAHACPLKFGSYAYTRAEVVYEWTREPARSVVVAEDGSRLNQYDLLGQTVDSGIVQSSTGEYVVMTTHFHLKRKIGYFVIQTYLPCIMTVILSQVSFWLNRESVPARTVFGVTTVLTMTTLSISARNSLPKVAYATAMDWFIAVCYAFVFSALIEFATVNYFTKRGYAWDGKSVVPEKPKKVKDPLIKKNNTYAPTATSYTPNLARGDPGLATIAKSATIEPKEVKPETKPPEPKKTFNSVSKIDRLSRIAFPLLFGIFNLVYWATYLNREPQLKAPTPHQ
Sequence of 5-hydroxytryptamine receptor 2B (P41595 whole entry): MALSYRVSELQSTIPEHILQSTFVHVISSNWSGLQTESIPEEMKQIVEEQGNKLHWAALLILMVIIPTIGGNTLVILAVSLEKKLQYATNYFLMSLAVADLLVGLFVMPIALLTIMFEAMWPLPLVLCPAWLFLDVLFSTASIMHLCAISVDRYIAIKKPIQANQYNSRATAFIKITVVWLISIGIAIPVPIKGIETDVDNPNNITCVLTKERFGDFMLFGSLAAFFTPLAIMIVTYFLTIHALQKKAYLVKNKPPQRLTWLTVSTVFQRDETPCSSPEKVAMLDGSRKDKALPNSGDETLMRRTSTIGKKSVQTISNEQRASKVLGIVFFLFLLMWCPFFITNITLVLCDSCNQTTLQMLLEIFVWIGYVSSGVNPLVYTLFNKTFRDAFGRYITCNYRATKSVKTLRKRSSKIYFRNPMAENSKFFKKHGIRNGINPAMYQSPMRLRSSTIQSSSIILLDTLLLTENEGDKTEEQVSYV
Sequence of Muscarinic acetylcholine receptor M3 (P20309 whole entry): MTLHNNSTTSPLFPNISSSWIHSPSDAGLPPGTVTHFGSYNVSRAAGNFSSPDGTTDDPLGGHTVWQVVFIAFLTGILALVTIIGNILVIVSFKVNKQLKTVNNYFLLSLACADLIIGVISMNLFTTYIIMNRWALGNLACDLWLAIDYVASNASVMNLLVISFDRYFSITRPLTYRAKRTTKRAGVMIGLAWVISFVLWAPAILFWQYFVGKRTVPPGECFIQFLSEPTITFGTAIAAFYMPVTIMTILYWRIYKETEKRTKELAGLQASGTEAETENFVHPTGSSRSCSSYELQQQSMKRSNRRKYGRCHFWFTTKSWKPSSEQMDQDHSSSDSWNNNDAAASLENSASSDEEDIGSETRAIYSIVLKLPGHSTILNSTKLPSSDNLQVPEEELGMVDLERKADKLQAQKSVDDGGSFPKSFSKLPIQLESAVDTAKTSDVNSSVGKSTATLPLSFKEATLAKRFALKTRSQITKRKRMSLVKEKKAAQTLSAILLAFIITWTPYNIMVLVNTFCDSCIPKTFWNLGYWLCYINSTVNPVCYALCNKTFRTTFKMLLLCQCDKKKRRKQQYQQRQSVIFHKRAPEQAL

SMILES: CCC(NC(C)C)C(O)c1ccc(O)c2[nH]c(=O)ccc12 (stereo not given) [PROCATEROL]
AC50 (Adenosine receptor A2a): > 30 µM | AC50 [1]: 17 µM | AC50 [2]: > 30 µM | AC50 [3]: > 30 µM | AC50 [4]: > 30 µM | AC50 (Endothelin-1 receptor): > 30 µM | AC50 [5]: > 30 µM | AC50 (D(1A) dopamine receptor): > 30 µM | AC50 [6]: > 30 µM | AC50 [7]: > 30 µM | AC50 [8]: > 30 µM | AC50 [9]: > 30 µM | AC50 [10]: > 30 µM | AC50 (B2 bradykinin receptor): > 30 µM | AC50 [11]: > 30 µM

SMILES: CCCN1CCCC[C@H]1C(=O)Nc1c(C)cccc1C [ROPIVACAINE]
AC50 (Adenosine receptor A2a): > 30 µM | AC50 [1]: > 30 µM | AC50 [2]: > 30 µM | AC50 [3]: > 30 µM | AC50 [4]: > 30 µM | AC50 (Endothelin-1 receptor): > 30 µM | AC50 [5]: > 30 µM | AC50 (D(1A) dopamine receptor): > 30 µM | AC50 [6]: > 30 µM | AC50 [7]: > 30 µM | AC50 [8]: > 30 µM | AC50 [9]: > 30 µM | AC50 [10]: > 30 µM | AC50 (B2 bradykinin receptor): > 30 µM | AC50 [11]: > 30 µM

SMILES: CCN1CCCC1CNC(=O)c1cc(S(=O)(=O)CC)ccc1OC (stereo not given) [SULTOPRIDE]
AC50 (Adenosine receptor A2a): > 30 µM | AC50 [1]: > 30 µM | AC50 [2]: > 30 µM | AC50 [3]: 4.5 µM | AC50 [4]: > 30 µM | AC50 (Endothelin-1 receptor): > 30 µM | AC50 [5]: > 30 µM | AC50 (D(1A) dopamine receptor): > 30 µM | AC50 [6]: 1.3 µM | AC50 [7]: > 30 µM | AC50 [8]: > 30 µM | AC50 [9]: > 30 µM | AC50 [10]: > 30 µM | AC50 (B2 bradykinin receptor): > 30 µM | AC50 [11]: > 30 µM

SMILES: Cn1c(=O)c2c(ncn2CCOC(=O)C(C)(C)Oc2ccc(Cl)cc2)n(C)c1=O [THEOFIBRATE]
AC50 (Adenosine receptor A2a): > 30 µM | AC50 [1]: > 30 µM | AC50 [2]: > 30 µM | AC50 [3]: > 30 µM | AC50 [4]: > 30 µM | AC50 (Endothelin-1 receptor): > 30 µM | AC50 [5]: > 30 µM | AC50 (D(1A) dopamine receptor): > 30 µM | AC50 [6]: > 30 µM | AC50 [7]: > 30 µM | AC50 [8]: > 30 µM | AC50 [9]: > 30 µM | AC50 [10]: > 30 µM | AC50 (B2 bradykinin receptor): > 30 µM | AC50 [11]: > 30 µM

Second part, the compound after the results:

AC50 (Adenosine receptor A2a): > 30 µM | AC50 [1]: > 30 µM | AC50 [2]: > 30 µM | AC50 [3]: > 30 µM | AC50 [4]: > 30 µM | AC50 (Endothelin-1 receptor): > 30 µM | AC50 [5]: > 30 µM | AC50 (D(1A) dopamine receptor): > 30 µM | AC50 [6]: > 30 µM | AC50 [7]: > 30 µM | AC50 [8]: > 30 µM | AC50 [9]: > 30 µM | AC50 [10]: > 30 µM | AC50 (B2 bradykinin receptor): > 30 µM | AC50 [11]: > 30 µM
SMILES: O=C1CC[C@@H](C(=O)N2CSC[C@H]2C(=O)O)N1 [PIDOTIMOD] ([pGlu]-[Thz]-OH)

AC50 (Adenosine receptor A2a): > 30 µM | AC50 [1]: > 30 µM | AC50 [2]: > 30 µM | AC50 [3]: > 30 µM | AC50 [4]: > 30 µM | AC50 (Endothelin-1 receptor): > 30 µM | AC50 [5]: > 30 µM | AC50 (D(1A) dopamine receptor): > 30 µM | AC50 [6]: > 30 µM | AC50 [7]: > 30 µM | AC50 [8]: > 30 µM | AC50 [9]: > 30 µM | AC50 [10]: > 30 µM | AC50 (B2 bradykinin receptor): > 30 µM | AC50 [11]: > 30 µM
SMILES: COc1cc(C(=O)OCc2cccc(COC(=O)c3cc(OC)c(OC)c(OC)c3)n2)cc(OC)c1OC [PIROZADIL]
